# Source: paper PMC6934184, “Selective DNA-PKcs inhibition extends the therapeutic index of localized radiotherapy and chemotherapy” (The Journal of Clinical Investigation, 2019)
# Target: T1, CDK9/cyclin T1 (Homo sapiens, UniProt P50750)
# T1 construct: purchased Thermo Fisher Scientific (Life Technologies) SelectScreen
# Experiment: SelectScreen Adapta
# Format: biochemical
# How it was run: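 Compound tested in SelectScreen activity assays, Z'LYTE for CSF1R, CDK1/cyclin B and MAP2K6 and Adapta for CAMK1. ATP for CAMK1 was listed as 10, and Km app was used for CSF1R. Results are expressed in percent.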
# T1 sequence (P50750 whole entry): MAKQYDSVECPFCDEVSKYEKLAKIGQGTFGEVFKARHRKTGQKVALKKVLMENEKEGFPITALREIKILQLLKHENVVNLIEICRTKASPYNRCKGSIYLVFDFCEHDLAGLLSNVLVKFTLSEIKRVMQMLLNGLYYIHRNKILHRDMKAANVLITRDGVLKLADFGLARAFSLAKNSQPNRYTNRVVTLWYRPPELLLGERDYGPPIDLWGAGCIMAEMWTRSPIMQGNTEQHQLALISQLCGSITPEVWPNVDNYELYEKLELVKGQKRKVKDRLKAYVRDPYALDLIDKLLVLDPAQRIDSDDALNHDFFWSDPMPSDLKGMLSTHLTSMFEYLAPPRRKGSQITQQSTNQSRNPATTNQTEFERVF
# T1 sequence (O60563 whole entry partner): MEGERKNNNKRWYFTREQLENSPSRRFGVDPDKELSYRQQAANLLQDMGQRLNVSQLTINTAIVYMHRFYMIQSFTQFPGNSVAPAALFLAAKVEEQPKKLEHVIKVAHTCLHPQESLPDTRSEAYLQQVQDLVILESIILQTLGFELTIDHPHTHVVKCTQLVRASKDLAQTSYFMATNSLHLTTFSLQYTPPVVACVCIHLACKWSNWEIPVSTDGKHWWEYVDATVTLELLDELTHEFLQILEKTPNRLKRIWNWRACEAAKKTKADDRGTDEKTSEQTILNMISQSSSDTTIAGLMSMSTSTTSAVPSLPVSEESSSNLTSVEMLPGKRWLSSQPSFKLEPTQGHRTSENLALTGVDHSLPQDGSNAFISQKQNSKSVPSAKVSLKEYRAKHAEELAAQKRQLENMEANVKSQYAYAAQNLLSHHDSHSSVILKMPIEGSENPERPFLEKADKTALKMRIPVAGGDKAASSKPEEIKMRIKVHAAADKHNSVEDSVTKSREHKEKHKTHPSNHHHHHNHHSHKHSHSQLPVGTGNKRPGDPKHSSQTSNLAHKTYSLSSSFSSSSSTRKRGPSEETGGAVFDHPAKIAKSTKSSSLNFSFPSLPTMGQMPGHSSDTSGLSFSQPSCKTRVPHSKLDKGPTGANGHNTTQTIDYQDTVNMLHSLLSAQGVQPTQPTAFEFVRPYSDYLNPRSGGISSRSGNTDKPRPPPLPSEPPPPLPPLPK
structure (smiles),measurement,value
CN(C(=O)CN1CCOCC1)c1ccc2sc3c(-c4cccc5c(=O)cc(N6CC7CCC(C6)O7)oc45)cccc3c2c1 [NU5455],inhibition at 1 µM,-1.4%
